Like-named read-outs stand apart in the source and are kept apart here.
Key:
[1] = biological target: T1, human recombinant histamine H2 receptor (Homo sapiens, UniProt P25021); test: Histamine H2 radioligand binding ([125I]Aminopotentidine)
T1 construct: expressed in transfected cells; host or cells: CHO-K1 cells
Procedure, shortened: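 Membranes of CHO-K1 cells expressing human H2 receptor incubated with 0.1 nM [125I]aminopotentidine, 120 min, 25 °C, 50 mM phosphate pH 7.4; nonspecific binding defined with 3 μM tiotidine.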

[2] = biological target: T2, human recombinant adrenergic α2A receptor (Homo sapiens, UniProt P08913); test: Adrenergic α2A radioligand binding ([3H]MK-912)
T2 construct: expressed in transfected cells; host or cells: insect Sf9 cells
T2 sequence (P08913 1-465): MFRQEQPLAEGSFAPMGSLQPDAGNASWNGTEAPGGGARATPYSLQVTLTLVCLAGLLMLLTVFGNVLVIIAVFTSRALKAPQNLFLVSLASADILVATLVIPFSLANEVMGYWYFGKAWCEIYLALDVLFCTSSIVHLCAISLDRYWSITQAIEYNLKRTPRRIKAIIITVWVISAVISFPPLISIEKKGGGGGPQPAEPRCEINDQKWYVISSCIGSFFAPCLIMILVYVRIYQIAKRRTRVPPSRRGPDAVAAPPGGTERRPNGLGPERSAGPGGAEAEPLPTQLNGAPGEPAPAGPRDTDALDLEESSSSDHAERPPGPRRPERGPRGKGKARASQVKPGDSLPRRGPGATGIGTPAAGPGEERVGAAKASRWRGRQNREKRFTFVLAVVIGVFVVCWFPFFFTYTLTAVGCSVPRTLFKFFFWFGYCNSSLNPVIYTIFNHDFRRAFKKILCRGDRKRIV
Method: To evaluate in radioligand binding assays the activity of compounds of the invention, human recombinant adrenergic α2A receptor expressed in insect Sf9 cells (Uhlen S et al. J Pharmacol Exp Ther. 271:1558, 1994) in a modified Tris-HCl buffer (50 mM Tris-HCl, pH 7.4, 12.5 mM MgCl2, 2 mM EDTA) was used. Compounds of invention were incubated with 1 nM [^3H]MK-912 for 60 minutes at 25° C. MK912 is (2S-trans)-1,3,4,5′,6,6′,7,12b-octahydro-1′,3′-dimethyl-spiro[2H-benzofuro[2,3-a]quinolizine-2,4′(1′H)-pyrimidin]-2′(3′H)-one hydrochloride Non-specific binding was estimated in the presence of 10 μM WB-4101 (2-(2,6-Dimethoxyphenoxyethyl)aminomethyl-1,4-benzodioxane hydrochloride). Receptor proteins were filtered and washed, the filters were then counted to determine [^3H]MK-912 specifically bound. Compounds were screened at 1 μM or lower, using 1% DMSO as vehicle. Biochemical assay results are presented as the percent inhibition of specific binding in Table 4.

[3] = biological target: T3, human recombinant adrenergic α2B receptor (Homo sapiens, UniProt P18089); test: Adrenergic α2B radioligand binding ([3H]Rauwolscine)
T3 construct: expressed in transfected cells; host or cells: CHO-K1 cells
T3 sequence (P18089 1-450): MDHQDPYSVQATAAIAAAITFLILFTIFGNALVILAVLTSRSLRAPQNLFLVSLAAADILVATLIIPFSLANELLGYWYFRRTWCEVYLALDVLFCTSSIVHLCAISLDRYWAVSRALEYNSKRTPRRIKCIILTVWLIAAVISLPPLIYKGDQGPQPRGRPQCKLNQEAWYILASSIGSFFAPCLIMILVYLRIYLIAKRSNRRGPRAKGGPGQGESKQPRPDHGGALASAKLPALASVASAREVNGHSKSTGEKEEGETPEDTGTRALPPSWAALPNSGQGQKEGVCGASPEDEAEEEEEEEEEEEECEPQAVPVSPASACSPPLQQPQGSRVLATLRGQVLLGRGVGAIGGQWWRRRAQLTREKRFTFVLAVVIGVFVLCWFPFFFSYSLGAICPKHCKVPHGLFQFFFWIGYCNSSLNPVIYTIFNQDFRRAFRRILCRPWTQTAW
Method: To evaluate in radioligand binding assays the activity of compounds of the invention, human recombinant adrenergic α2B receptor expressed in Chinese hamster ovary (CHO-K1) cells (Uhlen S et al. Eur J. Pharmacol. 343(1):93, 1998) in a modified Tris-HCl buffer (50 mM Tris-HCl, pH 7.4, 12.5 mM MgCl2, 1 mM EDTA, 0.2% BSA) was used. Compounds of the invention were incubated with 2.5 nM [^3H]Rauwolscine for 60 minutes at 25° C. Non-specific binding was estimated in the presence of 10 μM Prozosin. Receptor proteins were filtered and washed, the filters were then counted to determine [^3H]Rauwolscine specifically bound. Compounds were screened at 1 μM or lower, using 1% DMSO as vehicle. Biochemical assay results are presented as the percent inhibition of specific binding in Table 4.

[4] = biological target: T4, human recombinant serotonin (5-Hydroxytryptamine) 5-HT2C receptor (Homo sapiens, UniProt P28335); test: Serotonin 5-HT2C radioligand binding ([3H]Mesulergine)
T4 construct: expressed in transfected cells; host or cells: CHO-K1 cells
T4 sequence (P28335 33-458): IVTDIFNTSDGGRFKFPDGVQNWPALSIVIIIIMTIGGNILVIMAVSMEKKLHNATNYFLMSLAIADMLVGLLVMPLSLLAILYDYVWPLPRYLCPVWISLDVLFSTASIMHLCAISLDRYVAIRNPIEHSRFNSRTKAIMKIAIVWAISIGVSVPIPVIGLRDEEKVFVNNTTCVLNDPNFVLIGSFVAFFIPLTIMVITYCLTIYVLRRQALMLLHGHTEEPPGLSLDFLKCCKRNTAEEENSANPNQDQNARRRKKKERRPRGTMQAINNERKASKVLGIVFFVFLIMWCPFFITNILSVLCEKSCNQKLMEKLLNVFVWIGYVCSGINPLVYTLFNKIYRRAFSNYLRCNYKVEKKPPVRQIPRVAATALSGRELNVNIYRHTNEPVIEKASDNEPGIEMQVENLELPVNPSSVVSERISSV
Method: Compounds of the invention were incubated with 1 nM [^3H]Mesulergine for 60 minutes at 25° C. Non-specific binding was estimated in the presence of 1 μM Mianserin. Receptor proteins were filtered and washed, the filters were then counted to determine [^3H]Mesulergine specifically bound. […] Biochemical assay results are presented as the percent inhibition of specific binding in Table 5.

[5] = 1 μM, inhibition of specific [125I]Aminopotentidine binding, read-out: Binding data (Percentage Inhibition) Histamine Binding (1 μM) H2
[6] = 1 h, read-out: Percent Inhibition of ligand binding Adrenergic (1 μM ligand conc.) α2A
[7] = 1 h, read-out: Percent Inhibition of ligand binding Adrenergic (1 μM ligand conc.) α2B
[8] = 1 h, read-out: Percent Inhibition of ligand binding Serotonin (1 μM ligand concentration) 5-HT2C

T1 sequence (P25021 whole entry): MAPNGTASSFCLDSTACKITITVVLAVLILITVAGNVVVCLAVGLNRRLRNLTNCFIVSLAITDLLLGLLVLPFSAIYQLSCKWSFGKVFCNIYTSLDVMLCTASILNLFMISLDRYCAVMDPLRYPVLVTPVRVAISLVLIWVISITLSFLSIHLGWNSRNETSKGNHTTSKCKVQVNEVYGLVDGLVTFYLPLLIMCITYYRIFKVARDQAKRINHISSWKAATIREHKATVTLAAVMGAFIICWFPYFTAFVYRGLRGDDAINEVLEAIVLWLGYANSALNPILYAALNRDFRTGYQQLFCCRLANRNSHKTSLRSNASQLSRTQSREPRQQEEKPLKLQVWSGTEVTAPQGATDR

| SMILES | inhibition at 1 µM [1, 5] | inhibition at 1 µM [2, 6] | inhibition at 1 µM [3, 7] | inhibition at 1 µM [4, 8] | other results |
| --- | --- | --- | --- | --- | --- |
| CN1CCc2c(n(CC(=O)N(C)C3CCCCC3)c3ccc(Cl)cc23)C1 [Compound 18, 2-(6-chloro-1,2,3,4-tetrahydro-2-methylpyrido[3,4-b]indol-9-yl)-N-cyclohexyl-N-methylacetamide] | 7% | 4% | 19% | 3% |  |
| CN1CCc2c(n(CCN3CCCCC3)c3ccc(Cl)cc23)C1 [Compound 34, 6-chloro-2,3,4,9-tetrahydro-2-methyl-9-(2-(piperidin-1-yl)ethyl)-1H-pyrido[3,4-b]indole] | 20% | 66% | 38% | 37% |  |
| CN1CCc2c(n(CCC3CCCC3)c3ccc(Cl)cc23)C1 [Compound 35, 6-chloro-9-(2-cyclopentylethyl)-2,3,4,9-tetrahydro-2-methyl-1H-pyrido[3,4-b]indole] | 67% | 88% | 65% | 87% |  |
| CN1CCc2c(n(CCc3ccc(F)cc3)c3ccc(Cl)cc23)C1 [Compound 3, 9-(4-fluorophenethyl)-6-chloro-2,3,4,9-tetrahydro-2-methyl-1H-pyrido[3,4-b]indole] | 51% | 99% | 108% | 90% |  |
| C/C(=C\n1c2c(c3cc(C)ccc31)CCN(C)C2)c1ccc(Cl)cc1 [Compound 97, 9-(2-(4-chlorophenyl)prop-1-enyl)-2,6-dimethyl-2,3,4,9-tetrahydro-1H-pyrido[3,4-b]indole] | 89% | 91% | 96% | 99% |  |
| C/C(=C\n1c2c(c3cc(Cl)ccc31)CCN(C)C2C)c1ccccc1F (centres unmarked) [Compound 168] | 64% | 74% | 82% | 96% |  |
| Cc1ccc(CCn2c3c(c4cc(Cl)ccc42)CCN(C)C3C)cn1 (centres unmarked) [Compound 80] | 18% | 82% | 100% | 79% |  |
| CC1c2c(c3cc(Cl)ccc3n2CCc2ccc(F)cc2)CCN1C (centres unmarked) [Compound 81] | 67% | 92% | 102% | 88% |  |
| CN1CCc2c(n(CCCC(=O)N3CCCCC3)c3ccc(Cl)cc23)C1 [Compound 44, 4-(6-chloro-1,2,3,4-tetrahydro-2-methylpyrido[3,4-b]indol-9-yl)-1-(piperidin-1-yl)butan-1-one] | 9% | 77% | 20% | 54% |  |
| COc1ccc(C(O)Cn2c3c(c4cc(C)ccc42)CCN(C)C3)cc1OC (centres unmarked) [Compound 66] | 1% | 55% | 74% | 48% |  |
| CCC1c2c(c3cc(Cl)ccc3n2CC(C)(O)c2ccc(F)cc2)CCN1C (centres unmarked) [Compound 79] | 20% | 92% | 89% | 77% |  |
| C/C(=C\n1c2c(c3cc(Cl)ccc31)CCN(C)C2)c1ccc(Cl)cc1 [Compound 98, 6-chloro-9-(2-(4-chlorophenyl)prop-1-enyl)-2-methyl-2,3,4,9-tetrahydro-1H-pyrido[3,4-b]indole] | 94% | 74% | 87% | 103% |  |
| C/C(=C\n1c2c(c3cc(C)ccc31)CCN(C)C2C)c1ccccc1F (centres unmarked) [Compound 166] | 90% | 95% | 106% | 96% | inhibition at 1 µM ([1]; compound concentration 1 μM, read-out: Percentage inhibition of ligand binding to H2 receptor): 90%; inhibition at 1 µM ([2]; compound concentration 1 μM, read-out: Percentage inhibition of ligand binding to Adrenergic α2A receptor): 95%; inhibition at 1 µM ([3]; compound concentration 1 μM, read-out: Percentage inhibition of ligand binding to Adrenergic α2B receptor): 106%; inhibition at 0.01 µM ([4]; compound concentration 10 nM, read-out: Percentage inhibition of ligand binding to 5-HT2C receptor): 33%; inhibition at 0.03 µM ([4]; compound concentration 0.03 μM, read-out: Percentage inhibition of ligand binding to 5-HT2C receptor): 62%; inhibition at 0.1 µM ([4]; compound concentration 0.1 μM, read-out: Percentage inhibition of ligand binding to 5-HT2C receptor): 87%; inhibition at 0.3 µM ([4]; compound concentration 0.3 μM, read-out: Percentage inhibition of ligand binding to 5-HT2C receptor): 93%; inhibition at 1 µM ([4]; compound concentration 1 μM, read-out: Percentage inhibition of ligand binding to 5-HT2C receptor): 96% |
| Cc1ccc2c(c1)c1c(n2C(=O)Cc2ccc(Cl)cc2)C(c2ccccc2)N(C)CC1 (centres unmarked) [Compound 163] | 27% | 96% | 37% | 96% |  |
| Cc1ccc2c(c1)c1c(n2CCC2CCCCC2)CN(C)CC1 [Compound 2, 9-(2-cyclohexylethyl)-2,3,4,9-tetrahydro-2,6-dimethyl-1H-pyrido[3,4-b]indole] | 71% | 81% | 81% | 84% |  |
| Cc1ccc2c(c1)c1c(n2CC(O)c2ccccc2)CN(C)CC1 (centres unmarked) [Compound 67] | 8% | 85% | 106% | 85% |  |
| Cc1ccc2c(c1)c1c(n2CC(C)(O)c2ccc(F)cc2)CN(C)CC1 (centres unmarked) [Compound 61, 1-(2,6-dimethyl-3,4-dihydro-1H-pyrido[3,4-b]indol-9(2H)-yl)-2-(4-fluorophenyl)propan-2-ol] | 17% | 83% | 101% | 81% |  |
| C#CCn1c2c(c3cc(Cl)ccc31)CCN(C)C2 [Compound 125, 6-chloro-2,3,4,9-tetrahydro-2-methyl-9-(prop-2-yn1)-1H-pyrido[3,4-b]indole] | 9% | 89% | 67% |  | Percent Inhibition of ligand binding Serotonin (1 μM ligand concentration) 5-HT2C ([4]; 1 μM ligand concentration): 74% |
